Article PMC3057979 (PLoS ONE, 2011)
Where no end group is shown, it is not given here.

What was measured:
[1] = system: CD4^+ T cells of PI-WCV vaccinated C57BL/6 mice; conditions: 20 h
[2] = system: CD4^+ T cells of recombinant protein vaccinated C57BL/6 mice; type: cell-based
[3] = system: CD4^+ T cells of C. burnetii RSA 439 infected C57BL/6 mice; type: cell-based
[4] = molecular target: T1, H-2 I-A^b (purified IA^b MHC class II) (Mus musculus, UniProt P14434+P14483); experiment: biochemical; type: binding
T1 construct: endogenous in cells; host or cells: mouse B-cell lymphoma LB27.4
T1 sequence (P14434 24-256): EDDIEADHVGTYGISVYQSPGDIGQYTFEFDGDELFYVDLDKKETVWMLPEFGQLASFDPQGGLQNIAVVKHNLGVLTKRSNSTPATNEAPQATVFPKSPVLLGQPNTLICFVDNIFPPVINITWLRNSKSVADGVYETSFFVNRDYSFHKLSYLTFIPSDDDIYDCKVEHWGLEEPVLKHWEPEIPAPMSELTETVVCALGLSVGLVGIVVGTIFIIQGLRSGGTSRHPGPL
T1 sequence (P14483 28-265): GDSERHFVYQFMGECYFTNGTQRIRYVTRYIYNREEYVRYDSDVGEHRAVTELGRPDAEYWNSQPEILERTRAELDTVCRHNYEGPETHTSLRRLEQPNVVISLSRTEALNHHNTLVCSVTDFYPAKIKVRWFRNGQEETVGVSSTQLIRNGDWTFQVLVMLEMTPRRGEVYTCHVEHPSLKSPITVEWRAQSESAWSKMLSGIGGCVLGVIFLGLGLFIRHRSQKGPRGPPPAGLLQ

[5] = system: IgG antibody production against CBU 0383, CBU 1157, CBU 1910; set-up: species or system C57BL/6 mice; conditions: mouse, in vivo

Sequence | SI-WCV vaccination [1] | SI-rAgs [2] | SI-Infection [3] | IC50 [4] | IgG antibodies against recombinant proteins after peptide immunization alone [5]
AKKLFNDPASPVAGN [CBU191081-95] | 0.63±0.31 | 4.8 | 0.79±0.44 | – | –
DLPAAIVDAIAPQEG [CBU1645138-152] | 0.80±0.62 | 3 | 0.67±0.34 | – | –
DLRYHAPIYGAVHPR [CBU 1157_177–191] | 3.67±1.53 | – | – | 193 nM | –
ENAKKLFNDPASPVA [CBU191079-93] | 0.93±0.84 | 5.6 | 0.93±0.35 | – | –
HYLVNHPEVLVEASQ [CBU 1910_45–59] | 23.77±13.0 | – | – | 293 nM | –
IRNKLKIQATINNAK [CBU038398-112] | 1.07±0.51 | 2.22 | 0.43±0.57 | – | –
IRRLVGSFPAEERIG [CBU1645270-284] | 3.10±1.15 | 2.7 | 1.53±0.74 | – | –
KLFNDPASPVAGNPH [CBU 1910_83–97] | 3.67±1.12 | – | – | 351 nM | –
LSLMLNYPNSADRYY [CBU 1157_108–122] | 4.83±2.44 | – | – | 1040 nM | –
PWRYIRSFPILASSG [CBU 1157_63–77] | 6.80±1.25 | – | – | 34 nM | –
RDSFNNFDASIISKY [CBU 0383_69–83] | 5.33±3.10 | – | – | 507 nM | –
RGPWRYIRSFPILAS [CBU115761-75] | 1.87±1.67 | 7.17 | 0.57±0.34 | – | –
RLVGSFPAEERIGRT [CBU 1645_272–286] | 3.50±0.96 | – | – | 1860 nM | –
RNNYRDSFNNFDASI [CBU038365-79] | 5.57±1.79 | 3.06 | 3.25±2.21 | – | –
RYHAPIYGAVHPRWL [CBU1157179-193] | 1.97±0.75 | 4.37 | 2.37±1.05 | – | –
RYPNEPSRFEPKHID [CBU164510-24] | 2.03±1.27 | 2.38 | 1.56±1.29 | – | –
VHHYLVNHPEVLVEA [CBU 1910_43–57] | 22.73±12.51 | 15.9 | 28.27±9.54 | – | did not generate detectable antibodies
YDSLTTPTASVCQSE [CBU 1645_196–210] | 4.13±1.01 | – | – | 620 nM | –
YIWHFVDGHPIQNQW [CBU0383127-141] | 1.33±1.43 | 16.22 | 0.79±0.28 | – | –
YVYDSLTTPTASVCQ [CBU1645194-208] | 0.67±0.25 | 6 | 0.43±0.17 | – | –
